Laboratory results: article PMC11844072, “Novel 5,6-dichlorobenzimidazole derivatives as dual BRAFWT and BRAFV600E inhibitors: design, synthesis, anti-cancer activity and molecular dynamics simulations” (BMC Chemistry, 2025)

Key:
Experiment in all cases: NCI 60 single concentration growth inhibition
Type in all cases: cell-based, human
[1] = test system: 786-0; settings: 786-0, Renal cancer, 10 μM
Method: (§1) The synthesized dichlorobenzimidazoles 10a–p were assayed for their influence on divers cancer cell lines according to the method presented in the Additional file A.
(§2) 5. Screening of cytotoxic activity against a panel of sixty human tumor cell lines
(§3) The selected compounds by NCI were evaluated for their anticancer activity in a two-stage process. First, these compounds were screened against the full NCI 60 cell lines panel at a single high dose of 10 µM. Then, the output from the single dose screen is reported as a mean graph. […]
(§4) at five different minimal concentrations.
(§5) Assay protocol. The human tumor cell lines of the cancer screening panel are grown in RPMI 1640 medium containing 5% fetal bovine serum and 2 mM L-glutamine. For a typical screening experiment, cells are inoculated into 96 well microtiter plates in 100 µL at plating densities ranging from 5000 to 40,000 cells/well depending on the doubling time of individual cell lines. After cell inoculation, the microtiter plates are incubated at 37 °C, 5% CO 2, 95% air and 100% relative humidity for 24 h prior to addition of the experimental drugs.
(§6) After 24 h, two plates of each cell line are fixed in situ with TCA, to represent a measurement of the cell population for each cell line at the time of drug addition (Tz). The experimental drugs are solubilized in dimethyl sulfoxide at 400-fold the desired final maximum test concentration and stored frozen prior to use. At the time of drug addition, an aliquot of frozen concentrate is thawed and diluted to twice the desired final maximum test concentration with complete medium containing 50 µg/mL gentamicin. Additional four, 10-fold or ½ log serial dilutions are made to provide a total of five drug concentrations plus control.
(§7) Aliquots of […] of these different drug dilutions are added to the appropriate microtiter wells already containing […] of medium, resulting in the required final drug concentrations.
(§8) Following drug addition, the plates are incubated for an additional 48 h at 37 °C, 5% CO 2, 95% air, and 100% relative humidity. For adherent cells, the assay is terminated by the addition of cold TCA.
(§9) Cells are fixed in situ by the gentle addition of 50 µL of cold 50% (w/v) TCA (final concentration, 10% TCA) and incubated for 60 min at 4 °C. The supernatant is discarded, and the plates are washed five times with tap water and air dried. Sulforhodamine B (SRB) solution ([…]) at 0.4% (w/v) in 1% acetic acid is added to each well, and plates are incubated for 10 min at room temperature. After staining, unbound dye is removed by washing five times with 1% acetic acid and the plates are air dried. Bound stain is subsequently solubilized with 10 mM trizma base, and the absorbance is read on an automated plate reader at a wavelength of 515 nm. For suspension cells, the methodology is […]
(§10) the same except that the assay is terminated by fixing settled cells at the bottom of the wells by gently adding 50 µl of 80% TCA (final concentration, 16% TCA). Using the seven absorbance measurements [time zero, (Tz), control growth, (C), and test growth in the presence of drug at the five concentration levels (Ti)], the percentage growth is calculated at each of the drug concentrations […]
(§11) Percentage growth inhibition is calculated as: [(Ti Tz)/(C–Tz)] x 100 for concentrations for which Ti>/=Tz and [(Ti-Tz)/Tz] x 100 for concentrations for which Ti < Tz.
(§12) Three dose response parameters are calculated for each experimental agent. Growth […]
(§13) concentration resulting in a 50% reduction in the net protein increase (as measured by SRB staining) in control cells during the drug incubation. The drug concentration resulting in total growth inhibition (TGI) is calculated from Ti = Tz. […]
(§14) reduction in the measured protein at the end of the drug treatment as compared to that at the beginning) indicating a net loss of cells following treatment is calculated from [(Ti–Tz)/Tz] x 100 =
(§15) _50. Values are calculated for each of these three parameters if the level of activity is reached; […]

[2] = test system: A549/ATCC; settings: Non-small cell lung cancer, 10 μM
Method: as §1, §2, §3, §4, §5, §6, §7, §8, §9, §10, §11, §12, §13, §14, §15

[3] = test system: ACHN; settings: Renal cancer, 10 μM
Method: as §1, §2, §3, §4, §5, §6, §7, §8, §9, §10, §11, §12, §13, §14, §15

[4] = test system: BT-549; settings: BT-549, Breast cancer, 10 μM
Method: as §1, §2, §3, §4, §5, §6, §7, §8, §9, §10, §11, §12, §13, §14, §15

[5] = test system: EKVX; settings: Non-small cell lung cancer, 10 μM
Method: as §1, §2, §3, §4, §5, §6, §7, §8, §9, §10, §11, §12, §13, §14, §15

[6] = test system: KM12; settings: KM12, Colon cancer, 10 μM
Method: as §1, §2, §3, §4, §5, §6, §7, §8, §9, §10, §11, §12, §13, §14, §15

[7] = test system: M14; settings: M14, Melanoma, 10 μM
Method: as §1, §2, §3, §4, §5, §6, §7, §8, §9, §10, §11, §12, §13, §14, §15

[8] = test system: MCF7; settings: MCF7, Breast cancer, 10 μM
Method: as §1, §2, §3, §4, §5, §6, §7, §8, §9, §10, §11, §12, §13, §14, §15

[9] = test system: MDA-MB-435; settings: MDA-MB-435, Melanoma, 10 μM
Method: as §1, §2, §3, §4, §5, §6, §7, §8, §9, §10, §11, §12, §13, §14, §15

[10] = test system: MOLT-4; settings: MOLT-4, Leukemia, 10 μM
Method: as §1, §2, §3, §4, §5, §6, §7, §8, §9, §10, §11, §12, §13, §14, §15

[11] = test system: NCI-H226; settings: NCI-H226, Non-small cell lung cancer, 10 μM
Method: as §1, §2, §3, §4, §5, §6, §7, §8, §9, §10, §11, §12, §13, §14, §15

[12] = test system: OVCAR-5; settings: OVCAR-5, Ovarian cancer, 10 μM
Method: as §1, §2, §3, §4, §5, §6, §7, §8, §9, §10, §11, §12, §13, §14, §15

[13] = test system: OVCAR-8; settings: OVCAR-8, Ovarian cancer, 10 μM
Method: as §1, §2, §3, §4, §5, §6, §7, §8, §9, §10, §11, §12, §13, §14, §15

[14] = test system: PC-3; settings: PC-3, Prostate cancer, 10 μM
Method: as §1, §2, §3, §4, §5, §6, §7, §8, §9, §10, §11, §12, §13, §14, §15

[15] = test system: RPMI-8226; settings: RPMI-8226, Leukemia, 10 μM
Method: as §1, §2, §3, §4, §5, §6, §7, §8, §9, §10, §11, §12, §13, §14, §15

[16] = test system: RXF 393; settings: RXF 393, Renal cancer, 10 μM
Method: as §1, §2, §3, §4, §5, §6, §7, §8, §9, §10, §11, §12, §13, §14, §15

[17] = test system: SF-268; settings: SF-268, CNS cancer, 10 μM
Method: as §1, §2, §3, §4, §5, §6, §7, §8, §9, §10, §11, §12, §13, §14, §15

[18] = test system: SF-295; settings: SF-295, CNS cancer, 10 μM
Method: as §1, §2, §3, §4, §5, §6, §7, §8, §9, §10, §11, §12, §13, §14, §15

[19] = test system: SN12C; settings: Renal cancer, 10 μM
Method: as §1, §2, §3, §4, §5, §6, §7, §8, §9, §10, §11, §12, §13, §14, §15

[20] = test system: T-47D; settings: Breast cancer, 10 μM
Method: as §1, §2, §3, §4, §5, §6, §7, §8, §9, §10, §11, §12, §13, §14, §15

[21] = test system: UACC-257; settings: UACC-257, Melanoma, 10 μM
Method: as §1, §2, §3, §4, §5, §6, §7, §8, §9, §10, §11, §12, §13, §14, §15

Row | Substance | GI% [1] | GI% [2] | GI% [3] | GI% [4] | GI% [5] | GI% [6] | GI% [7] | GI% [8] [%] | GI% [9] | GI% [10] | GI% [11] [%] | GI% [12] | GI% [13] | GI% [14] | GI% [15] | GI% [16] | GI% [17] | GI% [18] | GI% [19] [%] | GI% [20] | other results
1 | 2-(4-((2-(2-(5,6-Dichloro-2-(4-methoxyphenyl)-1H-benzo[d]imidazol-1-yl)acetyl)hydrazono)methyl) -2-methoxyphenoxy)acetic acid [Compound 10m] | – (GI% < 5%) | – (GI% < 5%) | – (GI% < 5%) | – (GI% < 5%) | – (GI% < 5%) | – (GI% < 5%) | – (GI% < 5%) | 9.09 | – (GI% < 5%) | – (GI% < 5%) | 11.67 | – (GI% < 5%) | – (GI% < 5%) | – (GI% < 5%) | – (GI% < 5%) | – (GI% < 5%) | – (GI% < 5%) | – (GI% < 5%) | 5.24 | – (GI% < 5%) | GI% [21]: – (GI% < 5%)
2 | 2-(5-((2-(2-(5,6-Dichloro-2-(4-methoxyphenyl)-1H-benzo[d]imidazol-1-yl)acetyl)hydrazono)methyl)-2-methoxyphenoxy)acetic acid [Compound 10n] | – (GI% < 5%) | – (GI% < 5%) | – (GI% < 5%) | – (GI% < 5%) | – (GI% < 5%) | – (GI% < 5%) | – (GI% < 5%) | 14.21 | – (GI% < 5%) | 10.12% | 10.07 | – (GI% < 5%) | – (GI% < 5%) | 10.81% | – (GI% < 5%) | – (GI% < 5%) | – (GI% < 5%) | – (GI% < 5%) | 5.05 | – (GI% < 5%) | GI% [21]: – (GI% < 5%)
